Source: ChEMBL document CHEMBL5338815 (J Med Chem, 2023)
Activity calls are given as the source filed them. The rule behind the calls is not given here.

Experiments:
[1] = target: T1, Histone-lysine N-methyltransferase EHMT2 (Homo sapiens, UniProt Q96KQ7); assay: Inhibition of G9a (unknown origin) by AlphaLISA assay
T1 sequence (Q96KQ7 whole entry): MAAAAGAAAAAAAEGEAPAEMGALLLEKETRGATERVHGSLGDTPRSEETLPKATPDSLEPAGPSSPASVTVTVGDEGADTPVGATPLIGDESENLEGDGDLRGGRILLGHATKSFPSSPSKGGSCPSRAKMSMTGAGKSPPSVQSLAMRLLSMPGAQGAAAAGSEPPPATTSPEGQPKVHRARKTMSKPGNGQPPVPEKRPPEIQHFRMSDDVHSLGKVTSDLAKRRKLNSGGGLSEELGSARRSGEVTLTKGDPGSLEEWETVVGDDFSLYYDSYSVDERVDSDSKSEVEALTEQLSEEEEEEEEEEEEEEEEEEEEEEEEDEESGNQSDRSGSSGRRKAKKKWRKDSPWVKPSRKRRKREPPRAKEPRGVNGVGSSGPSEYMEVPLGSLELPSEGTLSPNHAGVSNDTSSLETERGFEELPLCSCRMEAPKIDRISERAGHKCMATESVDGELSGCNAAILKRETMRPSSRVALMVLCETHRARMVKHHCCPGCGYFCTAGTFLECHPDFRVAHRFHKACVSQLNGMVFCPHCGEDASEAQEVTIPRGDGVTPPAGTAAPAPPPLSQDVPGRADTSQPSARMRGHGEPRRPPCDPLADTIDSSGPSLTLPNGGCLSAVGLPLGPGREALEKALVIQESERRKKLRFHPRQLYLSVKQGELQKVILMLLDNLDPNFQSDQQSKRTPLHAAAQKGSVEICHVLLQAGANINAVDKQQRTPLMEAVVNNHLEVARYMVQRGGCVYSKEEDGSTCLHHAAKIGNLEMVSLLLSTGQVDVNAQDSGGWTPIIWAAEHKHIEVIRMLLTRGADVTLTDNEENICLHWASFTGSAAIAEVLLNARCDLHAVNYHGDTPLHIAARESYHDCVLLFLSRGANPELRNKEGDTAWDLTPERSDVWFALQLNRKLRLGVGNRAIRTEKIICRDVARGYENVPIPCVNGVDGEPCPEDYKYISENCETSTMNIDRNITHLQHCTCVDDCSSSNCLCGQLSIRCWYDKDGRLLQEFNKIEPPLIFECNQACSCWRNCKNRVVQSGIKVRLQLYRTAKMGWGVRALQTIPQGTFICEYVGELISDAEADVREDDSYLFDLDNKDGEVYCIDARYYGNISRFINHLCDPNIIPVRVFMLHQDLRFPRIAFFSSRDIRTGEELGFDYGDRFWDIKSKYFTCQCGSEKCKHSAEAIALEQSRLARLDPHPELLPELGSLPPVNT

[2] = test system: MDA-MB-231; assay: Antiproliferative activity against human MDA-MB-231 cells assessed as cell viability measured after 24 hrs by CCK-8 assay; format: functional, cell-based; conditions: MDA-MB-231, 24 h
[3] = test system: PANC-1; assay: Antiproliferative activity against human PANC-1 cells assessed as cell viability measured after 24 hrs by CCK-8 assay; format: functional, cell-based; conditions: PANC-1, 24 h
[4] = target: T2, Histone-lysine N-methyltransferase EHMT2 (Homo sapiens) (UniProt Q96KQ7); assay: Binding affinity to G9a in human MDA-MB-231 cells assessed as protein stabilization at 37 to 41.7 degC at 10 uM incubated for 15 hrs in presence of G9a antibody by CETSA; format: cell-based
T2 sequence (whole entry): T1 sequence (Q96KQ7 whole entry)

[5] = test system: MDA-MB-231; assay: Reduction in H3K9me2 level in human MDA-MB-231 cells at 10 uM by Western blot analysis; format: functional, cell-based; conditions: time 24-96 hrs, TDE = time-dependent effect
[6] = test system: MDA-MB-231; assay: Reduction in H3K9me2 level in human MDA-MB-231 cells at 10 uM incubated for 48 hrs followed replaced with fresh medium measured after 24 hrs by Western blot analysis; format: functional, cell-based
[7] = Metabolic stability in mouse liver microsomes assessed as half life at 0.1 uM measured upto 60 mins by LC-MS/MS analysis; format: ADME, Microsome
[8] = target: T3, Histone-lysine N-methyltransferase EHMT1 (Homo sapiens, UniProt Q9H9B1); assay: Inhibition of GLP (unknown origin)
T3 sequence (Q9H9B1 whole entry): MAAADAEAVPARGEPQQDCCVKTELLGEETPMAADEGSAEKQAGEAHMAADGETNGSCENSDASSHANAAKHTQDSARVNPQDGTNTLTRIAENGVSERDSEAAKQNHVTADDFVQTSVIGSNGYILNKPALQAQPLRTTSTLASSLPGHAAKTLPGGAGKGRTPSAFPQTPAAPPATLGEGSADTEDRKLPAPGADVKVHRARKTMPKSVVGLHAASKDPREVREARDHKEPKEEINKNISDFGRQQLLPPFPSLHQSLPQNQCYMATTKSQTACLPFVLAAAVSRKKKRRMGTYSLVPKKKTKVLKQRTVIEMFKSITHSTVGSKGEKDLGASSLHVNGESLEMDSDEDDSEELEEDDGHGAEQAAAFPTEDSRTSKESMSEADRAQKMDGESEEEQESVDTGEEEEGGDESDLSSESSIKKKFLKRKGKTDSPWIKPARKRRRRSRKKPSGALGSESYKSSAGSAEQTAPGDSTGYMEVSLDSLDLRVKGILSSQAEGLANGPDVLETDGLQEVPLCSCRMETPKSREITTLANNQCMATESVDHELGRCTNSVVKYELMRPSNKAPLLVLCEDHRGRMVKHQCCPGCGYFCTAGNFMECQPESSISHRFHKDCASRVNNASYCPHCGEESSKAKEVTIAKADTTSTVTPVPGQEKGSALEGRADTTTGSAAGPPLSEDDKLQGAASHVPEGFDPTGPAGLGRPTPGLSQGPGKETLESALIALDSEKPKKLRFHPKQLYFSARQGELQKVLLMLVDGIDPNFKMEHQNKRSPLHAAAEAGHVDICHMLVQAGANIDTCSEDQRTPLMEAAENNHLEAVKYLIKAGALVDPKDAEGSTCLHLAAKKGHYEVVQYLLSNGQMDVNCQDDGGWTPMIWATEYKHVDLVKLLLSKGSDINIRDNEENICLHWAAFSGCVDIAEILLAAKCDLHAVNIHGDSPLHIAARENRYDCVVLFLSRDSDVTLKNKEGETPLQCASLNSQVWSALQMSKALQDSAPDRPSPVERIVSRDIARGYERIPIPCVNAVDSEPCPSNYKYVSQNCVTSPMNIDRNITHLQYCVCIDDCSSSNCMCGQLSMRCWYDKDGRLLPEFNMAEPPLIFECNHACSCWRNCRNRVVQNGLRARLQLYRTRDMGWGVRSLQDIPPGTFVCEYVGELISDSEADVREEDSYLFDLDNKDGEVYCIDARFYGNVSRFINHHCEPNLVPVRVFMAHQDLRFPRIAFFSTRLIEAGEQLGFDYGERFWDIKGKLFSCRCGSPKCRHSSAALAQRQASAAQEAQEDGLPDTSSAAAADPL

[9] = target: T1, Histone-lysine N-methyltransferase EHMT2; assay: Inhibition of human recombinant G9a using H3-SAM as substrate

IC50 [1] [nM]	SMILES	other results
5.7	COc1cc2c(NC3CCN(C)CC3)nc(CNC(=O)CCl)nc2cc1OCCCN1CCCC1	–
11	C=CC(=O)N(C)c1nc(NCC2CCN(C)CC2)c2cc(OC)c(OCCCN3CCCC3)cc2n1	IC50 [2]: > 40000 nM; IC50 [3]: > 40000 nM
5.8	CCC(=O)N(C)c1nc(NC2CCN(C)CC2)c2cc(OC)c(OCCCN3CCCC3)cc2n1	IC50 [2]: 9730 nM; IC50 [3]: 14800 nM; Activity [4]: Active; inhibition [5]: Tde; inhibition [6]: inactive
5.9	C=CC(=O)N(C)c1nc(NC2CCN(Cc3ccccc3)CC2)c2cc(OC)c(OCCCN3CCCC3)cc2n1	IC50 [2]: 460 nM; IC50 [3]: 520 nM; half-life at 0.1 µM [7]: 4.72 min
0.52	C/C=C/C(=O)NCc1cc(NC2CCN(C)CC2)c2cc(OC)c(OCCCN3CCCC3)cc2n1	–
0.42	CC#CC(=O)NCc1cc(NC2CCN(C)CC2)c2cc(OC)c(OCCCN3CCCC3)cc2n1	–
–	CNc1nc2cc(OCCCN3CCCC3)c(OC)cc2n1C(C)C	IC50 [8]: < 100 nM; IC50 [9]: < 100 nM
95	CC#CC(=O)NCc1nc(NC2CCN(C)CC2)c2cc(OC)c(OCCCN3CCCC3)cc2n1	–
1.7	COc1cc2c(NC3CCN(C)CC3)cc(CNC(=O)CCl)nc2cc1OCCCN1CCCC1	–
60	C=CC(=O)NCc1nc(NC2CCN(C)CC2)c2cc(OC)c(OCCCN3CCCC3)cc2n1	–
64	CCC(=O)NCc1nc(NC2CCN(C)CC2)c2cc(OC)c(OCCCN3CCCC3)cc2n1	–
0.53	C=C(C)C(=O)NCc1cc(NC2CCN(C)CC2)c2cc(OC)c(OCCCN3CCCC3)cc2n1	–
3.9	C=CC(=O)N(C)c1nc(NC2CCN(CCC)CC2)c2cc(OC)c(OCCCN3CCCC3)cc2n1	IC50 [2]: 5480 nM; IC50 [3]: 4750 nM
7.6	COc1cc2c(NC3CCN(C)CC3)nc(CNC(=O)/C=C/CN(C)C)nc2cc1OCCCN1CCCC1	–
111	COc1cc2c(NC3CCN(C)CC3)nc(CNC(=O)C3(C#N)CC3)nc2cc1OCCCN1CCCC1	–
3.51	C=CC(=O)N(C)c1nc(NC2CCN(C3CCCCC3)CC2)c2cc(OC)c(OCCCN3CCCC3)cc2n1	IC50 [2]: 2230 nM; IC50 [3]: 2440 nM; half-life at 0.1 µM [7]: 10 min
0.49	C=CC(=O)NCc1cc(NC2CCN(C)CC2)c2cc(OC)c(OCCCN3CCCC3)cc2n1	–
0.71	CCC(=O)NCc1cc(NC2CCN(C)CC2)c2cc(OC)c(OCCCN3CCCC3)cc2n1	–
80	COc1cc2c(NC3CCN(C)CC3)nc(CNC(=O)CC#N)nc2cc1OCCCN1CCCC1	–
74	C/C=C/C(=O)NCc1nc(NC2CCN(C)CC2)c2cc(OC)c(OCCCN3CCCC3)cc2n1	–
4.4	C=CC(=O)N(C)c1nc(NC2CCN(C(C)C)CC2)c2cc(OC)c(OCCCN3CCCC3)cc2n1	IC50 [2]: 9600 nM; IC50 [3]: 8220 nM
116	C=C(C)C(=O)NCc1nc(NC2CCN(C)CC2)c2cc(OC)c(OCCCN3CCCC3)cc2n1	–
